Entries after “also recorded” stand apart in the source; their conditions may differ.

For test [1], the system named is PBT147 and PBT030 metabolic pathways. Put plainly: NanoString nCounter human metabolic panel of PBT147 and PBT030 cells. The format is cell-based. How it is done: FIG. 8. NanoString analysis of human metabolic pathways after treatment with ICG-001. The profiling panel consists of 770 genes targeting six fundamental themes: neurotransmission, neuron-glia interactions, neuroplasticity, cell structure integrity, neuroinflammation, and metabolism. Each assay also includes six positive and eight negative RNA assay controls, plus ten mRNA housekeeping controls. RNA was hybridized with the Codeset from the gene panel at 65° C. for 16 h. The post-hybridization probe-target mixture were quantified using the nCounter Digital Analyzer, and all data analysis was performed on nSolver (NanoString Technologies) metabolic panel. All raw data was normalized with internal positive and negative controls to eliminate variability unrelated to the samples, then normalized to the selected housekeeping genes using Geometric Means methods.
FIG. 17. (A-F) NanoString analysis of human metabolic pathways after treatment with ICG-001. The profiling panel consisted of 770 genes targeting six fundamental themes: neurotransmission, neuron-glia interactions, neuroplasticity, cell structure integrity, neuroinflammation, and metabolism. Each assay also included six positive and eight negative RNA assay controls and ten mRNA housekeeping controls. RNA was hybridized with the Codeset from the gene panel at 65° C. for 16 h. The post-hybridization probe-target mixture was quantified using the nCounter Digital Analyzer and all data analysis was performed using the nSolver metabolic panel (NanoString Technologies). All raw data was normalized with internal positive and negative controls to eliminate variability unrelated to the samples and then normalized to the selected housekeeping genes using Geometric Means methods. PBT147 and PBT030 cells were treated with ICG-001 at […] for 24 h (data not shown) or 72 h. Total RNA was collected for NanoString analysis from triplicate samples.
PBT147 and PBT030 PBT cells were treated with ICG-001 (0, 5, or 10 μM) for 24-72 h. RNA expression was then analyzed using the NanoString nCounter platform (NanoString Technologies) by digitally detecting and counting in a single reaction without amplification using the NanoString human metabolic panel (City of Hope Molecular Pathology Core) (Geiss, Bumgarner et al. 2008). The data indicates change in a several metabolic markers and antigen presentation increased by PBT cells lines after treatment with ICG-001 at both time points. […] An increased p53 pathway and mitochondrial respiration was also observed at both time points and both cell lines.
ICG-001 Affects PBT tumor metabolism. The N-termini of the Kat3 coactivators, i.e. CBP and p300, provide a highly evolutionarily conserved hub to integrate multiple signaling cascades to coordinate cellular metabolism with the regulation of cellular status and function and specifically that p300/β-Catenin mediated transcription is required to enhance mitochondrial OXPHOS during the initiation of cellular differentiation (Hu et al. 2021, Thomas & Kahn 2016). Therefore, patient-derived GBM cell lines PBT147 and PBT030 lines were treated with ICG-001 (0, 5, or 10 μM) for 24 h or 72 h (FIG. 17 shown differences in both cells lines at 72 h). RNA isolated from the treated PBT cells was analyzed using the NanoString nCounter metabolic panel (NanoString Technologies). This approach digitally detects and counts gene transcripts in a single reaction without amplification (analysis done by City of Hope Molecular Pathology Core) (Geiss et al. 2008).

Test [2] deals with murine-derived glioma cell lines (K-luc, GL261-parental, and GL261.IL13Rα2 engineered). Briefly: ICG-001 single agent on murine-derived glioma cell lines (growth kinetics). The format is cell-based, mouse. The note with it: ICG-001 0-10 μM, 4 days. How it is done:
FIG. 11. (A, B) Growth kinetics of human PBT glioma lines (PBT017, PBT030, PBT135, PBT144, and PBT147) treated with ICG-001 (0-10 μM) for 7 days and (C) mouse glioma cells (GL261, GL261-IL13, and K-luc) treated with ICG-001 (0-10 μM) for 4 days. Red boxes indicate PBT030 and PBT147 cell lines used for Nanostring and proteomics analysis. Scale bars represent S.D. of triplicate samples. (D-F) Growth kinetics of PBT017 (2,500 cells/well) treated with or without HER2-CAR T cells (500 cells/well) and with or without ICG-001 (0-5 μM). The red line is CAR T cell treatment only and the bottom three lines are with ICG-001. Experiment was done in quadruplicate and error bars indicate S.D.
ICG-001 activity in vitro in human and mouse glioma cell lines. Initially, the effects of the specific CBP/β-catenin antagonist ICG-001 was tested in vitro as a single agent on human and mouse glioma cell lines (5 PBT human and 3 mouse glioma lines).

Setting [3] is: ICG-001 0, 5, or 10 μM, 24 h or 72 h.
The mark [4] stands for this setting: ICG-001 0, 5, or 10 μM, both time points.

In the case of `O=C1[C@H](Cc2ccc(O)cc2)N2C(=O)CCN(C(=O)NCc3ccccc3)[C@H]2CN1Cc1cccc2ccccc12` [ICG-001], in test [1] (setting [3]), the cell cycle-related genes entry is recorded as “Downregulation; also recorded: cell cycle decrease”; the “glutamine metabolism, ROS, mTOR, and p53 signaling” value is “Upregulation”; the glycolysis entry is “decrease”; the mitochondrial respiration result is on record as “increased”. In test [1] (setting [4]), the antigen presentation entry is “increased” and the immunosuppressive tryptophan/kynurenine metabolism result was “concomitant decrease”. Further, in test [1] (all treated cell lines, all timepoints), the fatty acid oxidation entry was “decreased in all treated cell lines at all timepoints; also recorded: decreased in all treated cells and all timepoints”. The “effect on cell growth (growth kinetics)” value in test [2] is “concentration dependent cytostatic effect”.

These data come from patent US20220354852A1, “TARGETING WNT SIGNALING FOR IMPROVED GLIOMA IMMUNOTHERAPY” (CITY OF HOPE, priority 2021, published 2022).
